Patent publication US8906868B2, “Aminoglycoside derivatives” (Rempex Pharmaceuticals, Inc., priority 2010, dated 2014)

Columns and labels:
[1] = Aminoglycoside cytotoxicity in HK-2 cells (Alamar Blue); assay type: cell-based, Human; conditions: human
Procedure: (§1) Human kidney cortex proximal tubule cells (HK-2) were purchased from ATCC and maintained according to manufacturer's recommendations in Keratinocyte Serum-Free Media (SFM; Invitrogen), with 0.05 mg/ml bovine pituitary extract and 5 ng/ml of Epidermal growth factor.
(§2) Solutions of aminoglycosides at a concentration of 50 mg/mL (both control and novel test compounds) were prepared in sterile deionized water. Before treatment of cells, the concentrated drug solutions were diluted to the appropriate concentration in Keratinocyte SFM {20, 10, 5, 2.5, 1.25, 0.6, 0.3, and 0 mM}. Pentamidine was used as a positive control.
(§3) HK-2 cells were seeded at 2.5*10^4 cells/well density in 96-well plates in Keratinocyte SFM and placed in a 37° C. tissue culture CO2 incubator. […]. Each treatment was performed in duplicate. […] Drug solutions were aspirated and replaced with 0.1 ml of 5% Alamar Blue (Abd Serotec) cell proliferation reagent in Keratinocyte SFM. Plates were read on a Molecular Devices Gemini EM fluorometer pre-warmed at 37° C. at […]. Plates were read at 0 and 4 hrs, and were incubated at 37° C. in a CO2 incubator in between reads. The fluorescence signal at the 0 h timepoint was subtracted from that at 4 h to account for background fluorescence.
(§4) The cytotoxicity data were reported as the amount of drug producing a 50% decrease in Alamar Blue signal relative to the no drug treatment control.

ECM6006 aph(3′)-III = experiment: microbe, parasite or virus in culture; assay type: cell-based, Escherichia coli
Procedure, shortened: (§5)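 MICs came from optical density at 600 nm after 18 hours at 35° C, with visual confirmation. Compounds were serially diluted 2-fold in cation-adjusted Mueller Hinton broth and inoculated at 5×10^5 CFU/ml following CLSI guidelines.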

ECM6009 aac(3)-II = experiment: microbe, parasite or virus in culture; assay type: cell-based, Escherichia coli
Procedure, shortened: as §5

ECM6010 ant(2″)-I = experiment: microbe, parasite or virus in culture; assay type: cell-based, Escherichia coli
Procedure, shortened: as §5

ECM6011 aph(3′)-I = experiment: microbe, parasite or virus in culture; assay type: cell-based, Escherichia coli
Procedure, shortened: as §5

ECM6003 rmtB = experiment: microbe, parasite or virus in culture; assay type: cell-based, Escherichia coli; conditions: Table 3
Procedure, shortened: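 Broth microdilution per CLSI M7-A7 in cation-adjusted Mueller Hinton broth with 2-fold serial dilutions and 5×10^5 CFU/ml inoculum. Incubated 18 hours at 35 °C; MIC read by turbidity at 600 nm and confirmed visually.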

EC1002 aph(3′)-IV = experiment: organism not typed; assay type: cell-based
Procedure, shortened: as §5

EC1001 acc(6′)-Ib = experiment: microbe, parasite or virus in culture; assay type: cell-based, Escherichia coli; conditions: Table 4
Procedure, shortened: (§6)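 MICs came from well turbidity at 600 nm, checked by eye, after 18 hours at 35° C. Bacteria at a final 5×10^5 CFU/ml were exposed to 2-fold dilution series in cation-adjusted Mueller Hinton broth following CLSI methods.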

[2] = test system: ECM6007 aac(6′) + aph(2″); experiment: microbe, parasite or virus in culture; assay type: cell-based, Escherichia coli; conditions: Table 4
Procedure, shortened: as §6

ACM1005 ATCC 19004 = experiment: MIC, broth microdilution; assay type: cell-based, Acinetobacter baumannii; conditions: Table 4
Procedure, shortened: as §6

ACM1006 acc(6′)-Ib = experiment: microbe, parasite or virus in culture; assay type: cell-based, Acinetobacter baumannii; conditions: Table 4
Procedure, shortened: as §6

PAM3072 aac(6′)-II = experiment: microbe, parasite or virus in culture; assay type: cell-based, Pseudomonas aeruginosa; conditions: Table 5
Procedure, shortened: as §6

PAM3073 aac(6′)-I = experiment: microbe, parasite or virus in culture; assay type: cell-based, Pseudomonas aeruginosa; conditions: Table 5
Procedure, shortened: as §6

Sa 287 aac(6′) + aph(2″) = experiment: microbe, parasite or virus in culture; assay type: cell-based, Staphylococcus aureus; conditions: Table 5
Procedure, shortened: as §6

[3] = test system: Human kidney cortex proximal tubule cells (HK-2); experiment: Aminoglycoside cytotoxicity in HK-2 cells (Alamar Blue); assay type: cell-based; conditions: HK-2 cells, 50% decrease in Alamar Blue signal; read-out: IC50 @ 24 hrs
Procedure: as §1, §2, §3, §4

[4] = test system: Escherichia coli (ATCC 25922); experiment: MIC, broth microdilution
[5] = test system: Staphylococcus aureus (ATCC 29213); experiment: MIC, broth microdilution
[6] = test system: Klebsiella pneumonia (ATCC 43816); experiment: MIC, broth microdilution; conditions: QC strain, Table 2
[7] = test system: Pseudomonas aeruginosa (ATCC 27853); experiment: MIC, broth microdilution
[8] = test system: Acinetobacter baumannii (ATCC 19606); experiment: MIC, broth microdilution; conditions: QC strain, Table 2

NCC[C@H](O)C(=O)N[C@@H]1C[C@H](N)[C@@H](O[C@H]2O[C@H](CN)CC[C@H]2N)[C@H](O)[C@H]1O[C@H]1O[C@H](CO)[C@@H](O)[C@H](N)[C@H]1O [Arbekacin, reference compound]
IC50 at 24 h [1]: > 20 mM

Gentamicin [reference compound]
Compound MIC on Bacterial Strains: ECM6006 aph(3′)-III (ECM6006 aph(3′)-III): B (key: A: MIC of 1 μg/ml or less; B: MIC of greater than 1 μg/ml to 8 μg/ml; MIC of greater than 8 μg/ml) | Compound MIC on Bacterial Strains: ECM6009 aac(3)-II (ECM6009 aac(3)-II): C (key: A: MIC of 1 μg/ml or less; B: MIC of greater than 1 μg/ml to 8 μg/ml; MIC of greater than 8 μg/ml) | Compound MIC on Bacterial Strains: ECM6010 ant(2″)-I (ECM6010 ant(2″)-I): C (key: A: MIC of 1 μg/ml or less; B: MIC of greater than 1 μg/ml to 8 μg/ml; MIC of greater than 8 μg/ml) | Compound MIC on Bacterial Strains: ECM6011 aph(3′)-I (ECM6011 aph(3′)-I): B (key: A: MIC of 1 μg/ml or less; B: MIC of greater than 1 μg/ml to 8 μg/ml; MIC of greater than 8 μg/ml) | Compound MIC on Bacterial Strains: ECM6003 rmtB (ECM6003 rmtB): C (MIC of greater than 8 μg/ml) | Compound MIC on Bacterial Strains: EC1002 aph(3′)-IV (EC1002 aph(3′)-IV): B (key: A: MIC of 1 μg/ml or less; B: MIC of greater than 1 μg/ml to 8 μg/ml; MIC of greater than 8 μg/ml) | Compound MIC on Bacterial Strains: Escherichia coli EC1001 acc(6′)-Ib (EC1001 acc(6′)-Ib): B (MIC of greater than 1 μg/ml to 8 μg/ml) | Compound MIC on Bacterial Strains: Escherichia coli ECM6007 aac(6′) + aph(2″) [2]: B (MIC of greater than 1 μg/ml to 8 μg/ml) | Compound MIC on Bacterial Strains: Acinetobacter baumannii ACM1005 ATCC 19004 (ACM1005 ATCC 19004): A (MIC of 1 μg/ml or less) | Compound MIC on Bacterial Strains: Acinetobacter baumannii ACM1006 acc(6′)-Ib (ACM1006 acc(6′)-Ib): B (MIC of greater than 1 μg/ml to 8 μg/ml) | Compound MIC on Bacterial Strains: Pseudomonas aeruginosa PAM3072 aac(6′)-II (PAM3072 aac(6′)-II): C (MIC of greater than 8 μg/ml) | Compound MIC on Bacterial Strains: Pseudomonas aeruginosa PAM3073 aac(6′)-I (PAM3073 aac(6′)-I): B (MIC of greater than 1 μg/ml to 8 μg/ml) | Compound MIC on Bacterial Strains: Staphylococcus aureus Sa 287 aac(6′) + aph(2″) (Sa 287 aac(6′) + aph(2″)): C (MIC of greater than 8 μg/ml) | IC50 [3]: > 20 mM | Compound MIC on Bacterial Strains: E. coli ATCC 25922 ([4]; QC strain, Table 2): A (MIC of 1 μg/ml or less) | Compound MIC on Bacterial Strains: ECM6000 ATCC 25922 ([4]; Table 3): A (MIC of 1 μg/ml or less) | Compound MIC on Bacterial Strains: Escherichia coli ECM6000 ATCC 25922 ([4]; Table 4): A (MIC of 1 μg/ml or less) | Compound MIC on Bacterial Strains: S. aureus ATCC 29213 ([5]; QC strain, Table 2): A (MIC of 1 μg/ml or less) | Compound MIC on Bacterial Strains: Staphylococcus aureus SAM1000 ATCC 29213 ([5]; Table 5): A (MIC of 1 μg/ml or less) | Compound MIC on Bacterial Strains: K. pneumonia ATCC 43816 [6]: A (MIC of 1 μg/ml or less) | Compound MIC on Bacterial Strains: P. aeruginosa ATCC 27853 ([7]; QC strain, Table 2): A (MIC of 1 μg/ml or less) | Compound MIC on Bacterial Strains: Pseudomonas aeruginosa PAM3034 ATCC 27853 ([7]; Table 5): A (MIC of 1 μg/ml or less) | Compound MIC on Bacterial Strains: A. baumannii ATCC 19606 [8]: C (MIC of greater than 8 μg/ml)
